Measured values published in US9834750B2, “Cell-to-cell communication without exchange of mediating diffusible factors or using any physical contact between cells” (priority 2013, dated 2017).
Values belong to the compound of their own block, whether it stands above or below them.

Experiments:
[1] = biological target: T1, P2X3 (Mus musculus, UniProt Q3UR32); test: ATP-induced [Ca++]i transients in DRG neurons, Fura-2 fluorescence imaging, dish-in-dish culture; type: cell-based
T1 construct: endogenous in cells; host or cells: primary lumbosacral DRG neurons of C57BL/6J mice
T1 sequence (Q3UR32 1-397): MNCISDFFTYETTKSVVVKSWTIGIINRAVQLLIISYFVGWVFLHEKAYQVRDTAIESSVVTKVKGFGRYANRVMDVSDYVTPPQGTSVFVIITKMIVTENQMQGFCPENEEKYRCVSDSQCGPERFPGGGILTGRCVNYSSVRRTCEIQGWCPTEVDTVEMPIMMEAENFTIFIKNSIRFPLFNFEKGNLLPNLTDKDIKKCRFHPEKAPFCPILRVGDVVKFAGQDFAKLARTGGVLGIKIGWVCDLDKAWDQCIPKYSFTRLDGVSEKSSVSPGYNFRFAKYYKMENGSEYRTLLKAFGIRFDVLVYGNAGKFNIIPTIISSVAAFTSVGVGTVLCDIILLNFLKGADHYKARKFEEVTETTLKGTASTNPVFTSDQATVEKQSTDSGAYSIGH
Method: (§1) DRG tissues were obtained from C57BL/6J (Jackson Laboratory; 20 g). Upon arrival, mice were housed in microisolator caging and maintained on 12 hour light/dark cycle in a temperature controlled environment. The mice had access to food and water ad libitum for two weeks. All studies were carried out in accordance with the guidelines of the Institutional Animal Care and Use Committee (IACUC) of Charles R. Drew University of Medicine and Science and the NIH Guide for the Care and Use of Laboratory Animals.
(§2) Lumbosacral adult DRG cells (level L1-S-1) were collected under sterile technique and placed in ice cold medium Dulbecco's Modified Eagle's Medium (DMEM; Sigma-Aldrich, St. Louis, Mo.). Adhering fat and connective tissue were removed and each isolated DRG tissue was minced with sterile scissors and placed immediately in a medium consisting of 5 ml of DMDM containing 0.5 mg/ml of trypsin (Sigma Type III), 1 mg/ml of collagenase (Sigma Type IA) and 0.1 mg/ml of DNAase (Sigma Type III) and all kept at 37 degrees Centigrade for 30 minutes with agitation.
(§3) After dissociation of the ganglia soybean trypsin inhibitor (Sigma Type III) was used to terminate cell dissociation. Cell suspensions were centrifuged for one minute at 1000 rpm and the cell pellets were resuspended in DMEM supplemented with 5% fetal bovine serum (FBS), 2 mM glutamine-penicillin-streptomycin mixture, 1 ug/ml DNAase, and 5 ng/ml of NGF (Sigma).
(§4) Cells were then placed on Matrigel® (Invitrogen, Carlsbad, Calif.) coated 15-mm coverslips (Collaborative Research Co., Bedford Pa.) and kept at 37 degrees Centigrade in a 5% CO2 incubator for 24 hours, then given fresh media and maintained in primary culture until used for experimental procedures.
(§5) Adjacent culture of SH-SY5Y cells with dorsal root ganglion cells occurred as follows. A dish-in-dish system involving a physically separate outer “surround” cell culture well and a separate inner “center” cell culture well was constructed, both wells capable of being managed independently (FIG. 1).
(§6) Mouse DRG neuron cells were seeded in the center well which medium consisted of 5% FBS, 2 mM glutamine-penicillin-streptomycin mixture, 1 ug/mL DNAase, and 5 ng/mL NGF for 24 hours at 5% CO2 and 37 degrees Centigrade. Thus, the two cell populations were co-dish-in-dish cultured, separated but adjacent to each other for 12 hours prior to assessing [Ca++]i response to chemical stimulation. […]
Culture of normal control DRG cells juxtaposed with media containing no cells took place as follows. To establish additional control conditions for assessing the effect of non-diffusible cell-to-cell communication two additional controls were performed: 1) dish-in-dish culture of normal control DRG cells in the center culture well with DRG cell media only in the surround culture well; and 2) dish-in-dish culture of normal control DRG cells in the center culture well with human SH-SY5Y neuroblastoma cell media only in the surround culture well.
(§7) [Ca++]i fluorescence imaging was carried out. DRG neurons were loaded with fluorescent dye […] Fura-2 AM (Invitrogen, Carlsbad, Calif.) for 45 minutes at 37 degrees Centigrade in HBSS supplemented with 20 mM HEPES, pH 7.4. The cover slips were mounted in an RC-26 recording chamber P-4 (Warner Instruments, Hamden, Conn.) and placed on a stage of an Olympus IX51 inverted microscope (Olympus America, Center Valley, Pa.). Observations were made at room temperature (20-23 degrees Centigrade) with a 20× UApo/340 objective. Neurons were bathed and perfused with HBSS buffer using gravity at a rate of 1-2 ml/min.
Fluorescence intensity at 505 nm with excitation at 334 nm and 380 nm were captured as digital images (sampling rates from 0.1 to 2 seconds). Regions of interest were identified within the soma from which quantitative measurements were made by re-analysis of stored image sequences using Slidebook® Digital Microscopy software. […]

[2] = biological target: T2, TRPV1 (Mus musculus, UniProt Q704Y3); test: capsaicin-induced [Ca++]i transients in DRG neurons, Fura-2 fluorescence imaging, dish-in-dish culture; type: cell-based
T2 construct: endogenous in cells; host or cells: primary lumbosacral DRG neurons of C57BL/6J mice
T2 sequence (Q704Y3 whole entry): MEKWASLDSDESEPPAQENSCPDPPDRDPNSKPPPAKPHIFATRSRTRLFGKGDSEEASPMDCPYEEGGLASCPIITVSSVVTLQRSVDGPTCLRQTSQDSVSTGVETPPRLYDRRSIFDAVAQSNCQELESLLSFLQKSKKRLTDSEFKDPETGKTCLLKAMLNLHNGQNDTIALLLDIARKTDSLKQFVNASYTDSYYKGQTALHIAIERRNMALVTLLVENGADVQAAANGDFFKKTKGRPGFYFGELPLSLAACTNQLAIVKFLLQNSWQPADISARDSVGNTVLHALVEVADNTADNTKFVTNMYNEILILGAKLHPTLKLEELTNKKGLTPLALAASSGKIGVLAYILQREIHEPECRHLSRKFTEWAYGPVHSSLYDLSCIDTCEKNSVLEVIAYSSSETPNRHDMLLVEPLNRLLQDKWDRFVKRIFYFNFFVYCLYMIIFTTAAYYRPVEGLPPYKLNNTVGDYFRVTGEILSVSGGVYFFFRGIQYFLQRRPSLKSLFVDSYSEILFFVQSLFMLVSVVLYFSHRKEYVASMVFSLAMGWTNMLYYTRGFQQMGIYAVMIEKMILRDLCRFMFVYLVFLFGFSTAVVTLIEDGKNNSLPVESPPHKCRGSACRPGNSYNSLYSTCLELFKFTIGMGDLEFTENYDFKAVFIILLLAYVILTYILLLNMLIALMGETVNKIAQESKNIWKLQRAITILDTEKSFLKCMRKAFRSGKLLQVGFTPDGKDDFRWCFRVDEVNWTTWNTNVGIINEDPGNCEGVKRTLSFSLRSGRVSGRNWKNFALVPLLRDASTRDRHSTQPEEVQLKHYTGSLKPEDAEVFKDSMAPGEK
Method: as §1, §2, §3, §4, §5, §6, §7
(§8) Fluorescence intensity at 505 nm with excitation at 334 nm and 380 nm were captured as digital images (sampling rates from 0.1 to 2 seconds). Regions of interest were identified within the soma from which quantitative measurements were made by re-analysis of stored image sequences using Slidebook® Digital Microscopy software. [Ca++]i was determined by ratiometric method of Fura-2 fluorescence from calibration of a series of buffered Ca++ standards. E2 was applied acutely for five minutes onto the experimental chamber.
Repeated application of drugs was achieved by superfusion into individual neurons in a rapid mixing chamber for specific intervals (100-500 ms). […]

[3] = test system: DRG neurons; test: basal [Ca++]i in DRG neurons, Fura-2 fluorescence imaging; type: cell-based, mouse; conditions: E2 100 nM by itself
Method: as §1
Lumbosacral adult DRG cells (level L1-S-1) were collected under sterile technique and placed in ice cold medium Dulbecco's Modified Eagle's Medium (DMEM; Sigma-Aldrich, St. Louis, Mo.). […]
[Ca++]i fluorescence imaging was carried out. […]
as §8, with “E2 was applied acutely for five minutes onto the experimental chamber.” left out
All of the data were expressed as the mean±SEM. […]

[4] = neuroblastoma SH-SY5Y cells in the surround well

[Ca++]i spikes on ATP application ([1]; 10 second application of ATP 10 uM, DRG neurons in center and surround wells): equal [Ca++]i spikes | ATP-induced [Ca++]i responses, initial stimulation ([1]; ATP 10 uM, DRG neurons exposed to KCL (50 mM) in the surround well, p<0.001): four fold higher | ATP-induced [Ca++]i response with media only in surround well ([1]; ATP 10 uM, SH-SY5Y media without cells in the surround well): as occurred under control conditions | ATP-induced [Ca++]i response ([1]; ATP 10 uM, neuroblastoma SH-SY5Y cells in the surround well, n=4): 193 ± 40.6 nM | ATP-induced [Ca++]i responses, subsequent stimulation ([1]; ATP 10 uM, ten minute intervals, DRG neurons exposed to KCL (50 mM) in the surround well, p<0.001): significantly reduced | ATP-induced [Ca++]i transient ([1]; initial ATP (10 uM) response before E2, DRG cells in surround well (control), mean±SEM, n=5): 425.86 ± 49.5 nM | ATP-stimulated [Ca++]i with KCL media only in surround well ([1]; media with 50 mM KCL without cells in the surround well): as was observed in the control
Structure (SMILES): Nc1ncnc2c1ncn2[C@@H]1O[C@H](COP(=O)(O)OP(=O)(O)OP(=O)(O)O)[C@@H](O)[C@H]1O [ATP]

reversibility of the effect of capsaicin [2]: not reversible | peak of capsaicin-induced [Ca++]i transients ([2]; capsaicin 100 nM without E2, control conditions, mean±SEM, n=5): 399.21 ± 44.5 nM | capsaicin-induced [Ca++]i response with media only in surround well ([2]; capsaicin 100 nM, SH-SY5Y media without cells in the surround well): as occurred under control conditions | capsaicin-induced [Ca++]i response ([2]; capsaicin 100 nM, neuroblastoma SH-SY5Y cells in the surround well, n=4): 145.90 ± 28.84 nM | [Ca++]i spikes on capsaicin application ([2]; capsaicin 3 second 100 nM by fast superfusion): produced [Ca++]i spikes
Structure (SMILES): COc1cc(CNC(=O)CCCC/C=C/C(C)C)ccc1O [capsaicin]

effect on ATP-induced [Ca++]i spikes ([1]; BAPTA 10 mM, Ca++-free media): eliminated
Structure (SMILES): O=C(O)CN(CC(=O)O)c1ccccc1OCCOc1ccccc1N(CC(=O)O)CC(=O)O [BAPTA]

effect on ATP-induced [Ca++]i transients ([1]; pretreatment with PPADS 5 uM, ATP 10 uM): blocked
Structure (SMILES): Cc1nc(N=Nc2ccc(S(=O)(=O)O)cc2S(=O)(=O)O)c(COP(=O)(O)O)c(C=O)c1O [PPADS]

effect on capsaicin-induced [Ca++]i spikes ([2]; capsazepine 100 nM, capsaicin 100 nM 3 second): almost completely blocked
Structure (SMILES): Oc1cc2c(cc1O)CN(C(=S)NCCc1ccc(Cl)cc1)CCC2 [capsazepine]

effect on the 17 β-estradiol inhibitory effect on ATP-induced [Ca++]i transients ([1]; ICI 182,780 1 nM): blocked
Structure (SMILES): C[C@]12CC[C@@H]3c4ccc(O)cc4C[C@@H](CCCCCCCCC[S+]([O-])CCCC(F)(F)C(F)(F)F)[C@H]3[C@@H]1CC[C@@H]2O (some centres unmarked) [ICI 182,780]

peak of capsaicin-induced [Ca++]i transients with E2 ([2]; capsaicin 100 nM, E2 100 nM applied first, mean±SEM, n=5, p<0.05): 175.01 ± 34.8 nM | effect on capsaicin-induced TRPV1-mediated [Ca++]i flux [2, 4]: attenuated | ATP-induced [Ca++]i transient after E2 ([1]; ATP 10 uM after five-minute incubation with E2 (100 nM), mean±SEM, n=5, p<0.05): 171.17 ± 48.9 nM | reversibility of the effect on ATP-induced [Ca++]i ([1]; E2 100 nM): reversible | effect on ATP-induced [Ca++]i transients ([1]; E2 100 nM, control conditions): attenuated | effect of E2 on ATP-induced P2X3-mediated [Ca++]i [1, 4]: abolished
Structure (SMILES): C[C@]12CC[C@@H]3c4ccc(O)cc4CC[C@H]3[C@@H]1CC[C@@H]2O [E2, 17 β-estradiol]
effect on basal [Ca++]i [3]: no effect
